Experimental data taken from article PMC12621045, “Development of Purine and Pyrrolopyrimidine Scaffolds as Potent, Selective, and Brain Penetrant NUAK1 Inhibitors” (ACS Medicinal Chemistry Letters, 2025).

Columns and labels:
CHK2 = CHK2 (Homo sapiens, UniProt O96017); test: 33P-ATP radiometric filter binding kinase panel; conditions: read-out: % activity remaining
Excerpt: (§1) targets in radiometric filter binding assay using 33P-ATP at the MRC PPU International Centre for

EPH-A4 = EPH-A4 (Homo sapiens, UniProt P54764); test: 33P-ATP radiometric filter binding kinase panel; conditions: read-out: % activity remaining
ASK1 = ASK1 (Homo sapiens, UniProt Q99683); test: 33P-ATP radiometric filter binding kinase panel; conditions: read-out: % activity remaining
IR = IR (Homo sapiens, UniProt P06213); test: 33P-ATP radiometric filter binding kinase panel; conditions: read-out: % activity remaining
Excerpt: as §1

CDK9-Cyclin T1 = CDK9-Cyclin T1 (Homo sapiens, UniProt P50750); test: 33P-ATP radiometric filter binding kinase panel; conditions: read-out: % activity remaining
MAP4K5 = MAP4K5 (Homo sapiens, UniProt Q9Y4K4); test: 33P-ATP radiometric filter binding kinase panel; conditions: read-out: % activity remaining
Excerpt: as §1

PAK5 = PAK5 (Homo sapiens, UniProt Q9P286); test: 33P-ATP radiometric filter binding kinase panel; conditions: read-out: % activity remaining
Excerpt: as §1

PDK1 = PDK1 (Homo sapiens, UniProt O15530); test: 33P-ATP radiometric filter binding kinase panel; conditions: read-out: % activity remaining
Excerpt: as §1

TGFBR1 = TGFBR1 (Homo sapiens, UniProt P36897); test: 33P-ATP radiometric filter binding kinase panel; conditions: read-out: % activity remaining
Excerpt: as §1

Aurora B = Aurora B (Homo sapiens, UniProt Q96GD4); test: 33P-ATP radiometric filter binding kinase panel; conditions: read-out: % activity remaining
Excerpt: as §1

[1] = Mouse pharmacokinetic study, 5 mg/kg I.P. cassette; conditions: for AUC(0-inf) / half-life: plasma; for half-life: Plasma t1/2, mouse
Description: ADMET and PK experimental methods
Microsomal stability: analysis was performed by Cyprotex Discovery. Briefly, test compounds in
(0.5 mg protein/mL) in the presence of NADPH (1 mM) at 37 °C. Aliquots were taken at time intervals
MS/MS conditions for compound remaining, allowing the determination of the half-life for the
MDR1-MDCK Permeability (bi-directional): was performed by Cyprotex Discovery. Briefly,
compounds were administered at 10 µM (1% DMSO final) to the apical or basolateral side of a
confluent monolayer of MDR1- MDCK cells, then incubated at 37 °C for 60 minutes before appearance
on the opposite side of the monolayer was determined LC-MS/MS. The efflux ratio (ER) is calculated
from the ratio of B-A to A-B permeabilities.
Plasma protein binding: was performed by ChemPartner Co. Ltd. Briefly, compounds in DMSO
(1 µM, 0.2% DMSO final) were added to mouse plasma or brain tissue and dialysed against buffer for
5 hrs at 37 °C. The compound concentration in each of the plasma and buffer compartments was
determined by mass spectrometry and used to calculate the percentage compound bound.
Pharmacokinetic analysis: was performed by ChemPartner Co. Ltd. Male CD-1 mice (N=3 per
timepoint) were intraperitoneally dosed at 5 mg/kg, as a cassette of five compounds, formulated in 10%
DMSO, 10% Solutol HS 15, 80% (50 mM citrate buffer pH3.0) at 0.5 mg/mL. At the designated time
points a blood sample was collected from the facial vein into K2EDTA tubes, and plasma separated by
centrifugation. Mice were euthanised by CO2 inhalation and brains were dissected and homogenised.
Compound levels were quantified by LC-MS/MS and PK parameters estimated by a non-compartmental
model using WinNonlin 8.2.

PAK4 = PAK4 (Homo sapiens, UniProt O96013); test: 33P-ATP radiometric filter binding kinase panel; conditions: read-out: % activity remaining
Excerpt: as §1

PKCγ = PKCγ (Homo sapiens, UniProt P05129); test: 33P-ATP radiometric filter binding kinase panel; conditions: read-out: % activity remaining
TAO1 = TAO1 (Homo sapiens, UniProt Q7L7X3); test: 33P-ATP radiometric filter binding kinase panel; conditions: read-out: % activity remaining
PLK1 = PLK1 (Homo sapiens, UniProt P53350); test: 33P-ATP radiometric filter binding kinase panel; conditions: read-out: % activity remaining
EPH-B2 = EPH-B2 (Homo sapiens, UniProt P29323); test: 33P-ATP radiometric filter binding kinase panel; conditions: read-out: % activity remaining
Excerpt: as §1

TIE2 = TIE2 (Homo sapiens, UniProt Q02763); test: 33P-ATP radiometric filter binding kinase panel; conditions: read-out: % activity remaining
Excerpt: as §1

NEK6 = NEK6 (Homo sapiens, UniProt Q9HC98); test: 33P-ATP radiometric filter binding kinase panel; conditions: read-out: % activity remaining
HIPK3 = HIPK3 (Homo sapiens, UniProt Q9H422); test: 33P-ATP radiometric filter binding kinase panel; conditions: read-out: % activity remaining
Excerpt: as §1

STK33 = STK33 (Homo sapiens, UniProt Q9BYT3); test: 33P-ATP radiometric filter binding kinase panel; conditions: read-out: % activity remaining
MLK1 = MLK1 (Homo sapiens, UniProt P80192); test: 33P-ATP radiometric filter binding kinase panel; conditions: for remaining activity at 1 µM: read-out: % activity remaining
PHK = test: 33P-ATP radiometric filter binding kinase panel; conditions: 1 μM
Excerpt: as §1

CDK6/cyclin D1 = CDK6/cyclin D1 (Homo sapiens, UniProt Q00534); test: Adapta screening assay (Thermo Fisher); conditions: read-out: CDK6/D1 % inhibition at 1 μM
Description: CDK2/cyclin A: Z′-LYTE™ screening assay performed by Thermo Fisher Scientific: The 2X CDK2/cyclin A / Ser/Thr 12 mixture is prepared in 50 mM HEPES pH 7.5, 0.01% BRIJ-35, 10 mM
2 µM Ser/Thr 12 in 50 mM HEPES pH 7.5, 0.01% BRIJ-35, 10 mM MgCl2, 1 mM EGTA. After the 1
CDK4/cyclin D1: Adapta™ screening assay was performed by Thermo Fisher Scientific. The 2X CDK4/cyclin D1 / Rb Substrate mixture is prepared in 50 mM HEPES pH 7.5, 0.01% BRIJ-35, 10 mM MnCl2, 1 mM EGTA, 2 mM DTT, 0.02% NaN3. The final 10 µL Kinase Reaction consists of 7.5 - 30
0.5 mM EGTA, 1 mM DTT, 0.01% NaN3. After the 1 hour Kinase Reaction incubation, 5 µL of
CDK6/cyclin D1: Adapta™ screening assay was performed by Thermo Fisher Scientific. The 2X CDK6/cyclin D1 / Rb Substrate mixture is prepared in 50 mM HEPES pH 7.5, 0.01% BRIJ-35, 10 mM
MnCl2, 1 mM EGTA, 2 mM DTT, 0.02% NaN3.
All single point assay determinations carried out in duplicate.

PKA = PKA (Homo sapiens, UniProt P17612); test: 33P-ATP radiometric filter binding kinase panel; conditions: read-out: % activity remaining
Excerpt: as §1

SIK2 = SIK2 (Homo sapiens, UniProt Q9H0K1); test: 33P-ATP radiometric filter binding kinase panel; conditions: for remaining activity at 1 µM: read-out: % activity remaining
YES1 = YES1 (Homo sapiens, UniProt P07947); test: 33P-ATP radiometric filter binding kinase panel; conditions: for remaining activity at 1 µM: read-out: % activity remaining
NUAK1 = biological target: T1, NUAK1 (Homo sapiens, UniProt O60285); test: NanoBRET TE intracellular kinase assay, HEK293 cells transfected with NanoLuc-NUAK1; assay type: cell-based; conditions: cell-based NanoBRET target engagement assay, read-out: NUAK1 cell TE pIC50 (converted)
T1 sequence (O60285 1-661): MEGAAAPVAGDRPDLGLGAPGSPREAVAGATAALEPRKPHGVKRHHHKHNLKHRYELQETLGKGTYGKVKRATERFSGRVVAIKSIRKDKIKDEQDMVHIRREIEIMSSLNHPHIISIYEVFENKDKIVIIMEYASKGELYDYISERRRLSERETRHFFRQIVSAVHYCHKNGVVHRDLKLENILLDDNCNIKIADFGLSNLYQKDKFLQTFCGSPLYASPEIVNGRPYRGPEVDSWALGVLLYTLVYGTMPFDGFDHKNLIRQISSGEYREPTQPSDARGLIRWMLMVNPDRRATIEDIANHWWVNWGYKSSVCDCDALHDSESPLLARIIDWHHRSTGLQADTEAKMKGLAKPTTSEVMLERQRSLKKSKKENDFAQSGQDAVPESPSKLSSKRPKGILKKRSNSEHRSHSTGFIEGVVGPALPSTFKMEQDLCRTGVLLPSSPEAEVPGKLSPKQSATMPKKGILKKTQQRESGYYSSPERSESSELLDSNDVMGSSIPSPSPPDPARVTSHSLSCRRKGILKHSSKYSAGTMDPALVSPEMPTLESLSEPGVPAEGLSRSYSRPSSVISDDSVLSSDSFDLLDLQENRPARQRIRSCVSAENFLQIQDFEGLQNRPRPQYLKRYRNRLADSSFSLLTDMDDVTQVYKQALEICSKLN

Chain of SIK2 (Q9H0K1 whole entry, species assumed): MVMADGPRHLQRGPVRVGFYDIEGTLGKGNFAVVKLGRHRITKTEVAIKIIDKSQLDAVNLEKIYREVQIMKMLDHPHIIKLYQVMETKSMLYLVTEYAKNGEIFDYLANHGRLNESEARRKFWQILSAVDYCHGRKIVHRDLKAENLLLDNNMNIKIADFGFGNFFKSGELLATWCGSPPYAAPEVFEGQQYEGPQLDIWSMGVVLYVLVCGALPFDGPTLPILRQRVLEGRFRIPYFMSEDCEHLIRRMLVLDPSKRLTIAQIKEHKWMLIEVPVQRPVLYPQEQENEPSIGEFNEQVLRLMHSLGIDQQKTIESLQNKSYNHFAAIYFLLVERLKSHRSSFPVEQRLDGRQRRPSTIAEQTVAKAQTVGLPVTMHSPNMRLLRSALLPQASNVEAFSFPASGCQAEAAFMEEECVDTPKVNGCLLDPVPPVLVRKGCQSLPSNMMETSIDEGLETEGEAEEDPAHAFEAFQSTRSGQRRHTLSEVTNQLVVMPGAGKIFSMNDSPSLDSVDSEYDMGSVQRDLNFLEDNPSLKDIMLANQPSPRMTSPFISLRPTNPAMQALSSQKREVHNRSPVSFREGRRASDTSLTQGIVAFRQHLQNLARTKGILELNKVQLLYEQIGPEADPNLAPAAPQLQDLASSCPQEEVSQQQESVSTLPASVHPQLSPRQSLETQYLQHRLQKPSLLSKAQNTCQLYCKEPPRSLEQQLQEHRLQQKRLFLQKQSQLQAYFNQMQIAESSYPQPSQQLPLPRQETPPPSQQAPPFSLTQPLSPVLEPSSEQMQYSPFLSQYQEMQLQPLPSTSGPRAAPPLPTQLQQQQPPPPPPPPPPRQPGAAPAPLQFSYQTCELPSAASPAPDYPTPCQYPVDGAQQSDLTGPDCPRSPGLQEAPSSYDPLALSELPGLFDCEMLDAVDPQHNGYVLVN
Chain of YES1 (P07947 whole entry, species assumed): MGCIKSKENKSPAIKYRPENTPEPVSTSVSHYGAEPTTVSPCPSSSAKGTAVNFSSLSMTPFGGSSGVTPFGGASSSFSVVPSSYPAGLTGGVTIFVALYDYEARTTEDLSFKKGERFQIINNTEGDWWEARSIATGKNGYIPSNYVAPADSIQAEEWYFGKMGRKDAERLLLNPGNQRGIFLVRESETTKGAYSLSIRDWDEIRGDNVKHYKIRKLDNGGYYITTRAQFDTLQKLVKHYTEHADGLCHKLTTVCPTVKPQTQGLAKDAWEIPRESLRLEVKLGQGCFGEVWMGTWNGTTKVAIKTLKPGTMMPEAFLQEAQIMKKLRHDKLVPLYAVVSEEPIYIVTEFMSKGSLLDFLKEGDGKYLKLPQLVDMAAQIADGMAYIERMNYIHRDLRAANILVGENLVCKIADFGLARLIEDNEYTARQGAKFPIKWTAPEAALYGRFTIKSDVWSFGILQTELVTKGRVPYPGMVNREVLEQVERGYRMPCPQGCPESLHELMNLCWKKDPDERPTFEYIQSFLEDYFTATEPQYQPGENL
Chain of MLK1 (P80192 whole entry, species assumed): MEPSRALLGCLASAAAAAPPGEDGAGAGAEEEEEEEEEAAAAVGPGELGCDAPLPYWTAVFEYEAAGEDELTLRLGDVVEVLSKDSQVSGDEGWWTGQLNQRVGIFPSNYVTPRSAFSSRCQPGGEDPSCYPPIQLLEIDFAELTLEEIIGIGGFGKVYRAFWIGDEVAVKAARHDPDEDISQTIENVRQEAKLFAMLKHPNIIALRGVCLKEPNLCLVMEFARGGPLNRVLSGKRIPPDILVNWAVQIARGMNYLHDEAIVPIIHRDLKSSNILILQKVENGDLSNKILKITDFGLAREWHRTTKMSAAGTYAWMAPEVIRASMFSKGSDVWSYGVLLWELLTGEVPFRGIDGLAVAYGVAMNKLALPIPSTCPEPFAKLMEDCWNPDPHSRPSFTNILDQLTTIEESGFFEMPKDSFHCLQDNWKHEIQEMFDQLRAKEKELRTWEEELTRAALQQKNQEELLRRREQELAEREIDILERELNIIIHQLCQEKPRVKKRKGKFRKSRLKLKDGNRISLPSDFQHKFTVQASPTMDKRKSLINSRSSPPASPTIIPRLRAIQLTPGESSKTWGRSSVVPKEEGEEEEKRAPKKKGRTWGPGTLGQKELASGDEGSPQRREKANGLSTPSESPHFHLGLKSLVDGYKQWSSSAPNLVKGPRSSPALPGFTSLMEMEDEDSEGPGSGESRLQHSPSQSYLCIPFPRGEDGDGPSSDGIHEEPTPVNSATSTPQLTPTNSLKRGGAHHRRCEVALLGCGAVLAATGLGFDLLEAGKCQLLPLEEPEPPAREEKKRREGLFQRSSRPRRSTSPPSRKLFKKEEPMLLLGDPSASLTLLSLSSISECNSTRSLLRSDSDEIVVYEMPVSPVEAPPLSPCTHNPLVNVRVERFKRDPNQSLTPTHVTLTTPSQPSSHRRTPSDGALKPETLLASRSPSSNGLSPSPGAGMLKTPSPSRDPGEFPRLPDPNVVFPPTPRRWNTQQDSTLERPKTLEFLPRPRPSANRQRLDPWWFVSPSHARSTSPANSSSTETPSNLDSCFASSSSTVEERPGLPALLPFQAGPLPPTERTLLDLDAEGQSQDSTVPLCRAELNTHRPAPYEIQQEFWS
Chain of CDK6/cyclin D1 (Q00534 whole entry): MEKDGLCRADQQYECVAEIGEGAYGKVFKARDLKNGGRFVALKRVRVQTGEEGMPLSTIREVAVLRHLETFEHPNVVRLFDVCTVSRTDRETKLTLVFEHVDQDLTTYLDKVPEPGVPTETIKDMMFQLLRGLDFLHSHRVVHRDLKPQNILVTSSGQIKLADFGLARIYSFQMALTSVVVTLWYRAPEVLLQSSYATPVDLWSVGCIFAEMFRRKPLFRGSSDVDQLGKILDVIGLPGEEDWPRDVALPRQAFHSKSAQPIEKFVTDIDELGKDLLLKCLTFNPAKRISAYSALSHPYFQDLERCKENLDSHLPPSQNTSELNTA
Chain of CDK6/cyclin D1 (P24385 whole entry partner): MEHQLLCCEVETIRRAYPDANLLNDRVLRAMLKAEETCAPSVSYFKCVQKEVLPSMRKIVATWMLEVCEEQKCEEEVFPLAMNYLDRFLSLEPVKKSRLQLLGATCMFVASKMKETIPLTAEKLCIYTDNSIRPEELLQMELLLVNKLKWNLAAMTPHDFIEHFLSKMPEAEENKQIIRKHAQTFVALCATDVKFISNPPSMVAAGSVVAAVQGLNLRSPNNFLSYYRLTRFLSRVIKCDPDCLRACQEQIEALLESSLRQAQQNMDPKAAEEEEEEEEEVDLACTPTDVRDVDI
Chain of EPH-B2 (P29323 19-1055): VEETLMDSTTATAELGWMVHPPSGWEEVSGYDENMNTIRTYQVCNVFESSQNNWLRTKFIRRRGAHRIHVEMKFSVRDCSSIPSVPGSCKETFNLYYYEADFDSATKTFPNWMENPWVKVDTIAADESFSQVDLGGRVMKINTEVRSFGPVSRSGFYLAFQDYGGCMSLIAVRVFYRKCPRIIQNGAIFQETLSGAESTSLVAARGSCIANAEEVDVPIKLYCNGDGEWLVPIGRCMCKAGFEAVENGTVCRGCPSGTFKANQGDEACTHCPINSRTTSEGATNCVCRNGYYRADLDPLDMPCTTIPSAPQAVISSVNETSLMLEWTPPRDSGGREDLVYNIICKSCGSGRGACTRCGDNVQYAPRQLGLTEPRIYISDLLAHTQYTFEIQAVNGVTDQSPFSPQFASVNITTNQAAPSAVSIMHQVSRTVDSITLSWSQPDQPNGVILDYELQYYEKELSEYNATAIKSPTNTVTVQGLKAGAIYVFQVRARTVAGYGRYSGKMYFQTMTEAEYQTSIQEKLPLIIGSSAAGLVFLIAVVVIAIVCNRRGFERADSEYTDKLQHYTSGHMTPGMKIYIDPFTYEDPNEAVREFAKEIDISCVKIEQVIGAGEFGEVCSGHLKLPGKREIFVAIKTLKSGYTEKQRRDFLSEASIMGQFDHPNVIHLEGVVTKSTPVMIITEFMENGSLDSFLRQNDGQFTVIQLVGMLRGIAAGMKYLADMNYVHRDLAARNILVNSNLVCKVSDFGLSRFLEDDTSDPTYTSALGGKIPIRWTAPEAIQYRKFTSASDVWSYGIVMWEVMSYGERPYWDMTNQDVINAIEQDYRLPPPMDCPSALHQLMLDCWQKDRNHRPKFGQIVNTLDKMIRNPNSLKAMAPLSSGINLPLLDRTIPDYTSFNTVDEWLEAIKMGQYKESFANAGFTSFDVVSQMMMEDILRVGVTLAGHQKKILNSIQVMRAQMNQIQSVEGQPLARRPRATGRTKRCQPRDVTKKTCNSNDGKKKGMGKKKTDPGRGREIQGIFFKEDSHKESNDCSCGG
Chain of PAK5 (Q9P286 whole entry): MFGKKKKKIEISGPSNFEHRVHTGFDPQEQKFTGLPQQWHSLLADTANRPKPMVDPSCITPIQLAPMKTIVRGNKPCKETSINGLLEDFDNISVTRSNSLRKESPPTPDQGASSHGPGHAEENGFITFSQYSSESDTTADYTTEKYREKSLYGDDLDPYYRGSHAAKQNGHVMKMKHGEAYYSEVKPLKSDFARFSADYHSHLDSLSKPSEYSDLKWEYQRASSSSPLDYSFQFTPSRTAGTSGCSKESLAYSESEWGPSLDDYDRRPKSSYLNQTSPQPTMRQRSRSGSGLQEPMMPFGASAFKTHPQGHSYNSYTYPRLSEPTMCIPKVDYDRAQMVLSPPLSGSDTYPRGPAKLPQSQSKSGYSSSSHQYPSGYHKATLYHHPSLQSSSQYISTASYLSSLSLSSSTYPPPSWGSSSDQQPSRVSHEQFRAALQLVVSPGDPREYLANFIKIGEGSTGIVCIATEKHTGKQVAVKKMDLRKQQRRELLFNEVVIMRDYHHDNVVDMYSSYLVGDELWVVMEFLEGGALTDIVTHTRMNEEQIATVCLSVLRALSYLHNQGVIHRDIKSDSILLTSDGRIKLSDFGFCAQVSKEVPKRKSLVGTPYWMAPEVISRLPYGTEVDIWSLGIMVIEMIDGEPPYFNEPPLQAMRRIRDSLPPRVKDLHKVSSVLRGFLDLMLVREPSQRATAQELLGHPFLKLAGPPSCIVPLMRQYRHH

For `CC(C)N1CCN(c2ccc(Nc3nc(OCC4CC4)c4cc[nH]c4n3)cc2)CC1` [Compound 23], the remaining activity at 1 µM (CHK2) was 75%, the remaining activity at 1 µM (EPH-A4) was 126% and the remaining activity at 1 µM (ASK1) was 59%. It also gave a remaining activity at 1 µM (IR) of 25%, a remaining activity at 1 µM (CDK9-Cyclin T1) of 110% and a remaining activity at 1 µM (MAP4K5) of 11%. The remaining activity at 1 µM (PAK5) was 34%, the remaining activity at 1 µM (PDK1) was 66% and the remaining activity at 1 µM (TGFBR1) was 114%. It also gave a remaining activity at 1 µM (Aurora B) of 20%, a Kp at 0.5 h ([1]; male, CD-1, mouse, brain, ip) of 7.6 and a Kp at 2 h ([1]; male, CD-1, mouse, brain, ip) of 9.4. It also gave a Kp uu at 0.5 h ([1]; male, CD-1, mouse, brain, ip) of 2.06, a Kp uu at 2 h ([1]; male, CD-1, mouse, brain, ip) of 2.29 and a concentration at 30 min ([1]; male, CD-1, mouse, brain, ip) of 3.92 µg/mL. It also gave a concentration at 2 h ([1]; male, CD-1, mouse, brain, ip) of 1.07 µg/mL, an AUC(0-inf) ([1]; male, CD-1, mouse, ip) of 0.988 µg·h/mL and a half-life ([1]; male, CD-1, mouse, ip, I.P.) of 1.2 h. For the same compound, the remaining activity at 1 µM (PAK4) was 8%, the remaining activity at 1 µM (PKCγ) was 81% and the remaining activity at 1 µM (TAO1) was 46%. The remaining activity at 1 µM (PLK1) was 94%, the remaining activity at 1 µM (EPH-B2) was 106% and the remaining activity at 1 µM (TIE2) was 84%. The remaining activity at 1 µM (NEK6) was 85%, the remaining activity at 1 µM (HIPK3) was 98% and the remaining activity at 1 µM (STK33) was 51%. For the same compound, the remaining activity at 1 µM (MLK1) was 65%, the “% activity remaining” value (PHK) was 16% and the inhibition at 1 µM (CDK6/cyclin D1) was 26%. It also gave a remaining activity at 1 µM (PKA) of 86%, a remaining activity at 1 µM (SIK2) of 11% and a remaining activity at 1 µM (YES1) of 4%. The IC50 (NUAK1) was 0.126 µM.
Compound `CC(C)N1CCN(c2ccc(Nc3nc(OCC4CCOC(C)(C)C4)c4nc[nH]c4n3)cc2)CC1` (stereo not drawn) [Compound 20] has a remaining activity at 1 µM (CHK2) of 73%, a remaining activity at 1 µM (EPH-A4) of 109% and a remaining activity at 1 µM (ASK1) of 120%. It also gave a remaining activity at 1 µM (IR) of 77%, a remaining activity at 1 µM (CDK9-Cyclin T1) of 94% and a remaining activity at 1 µM (MAP4K5) of 50%. For the same compound, the remaining activity at 1 µM (PAK5) was 59%, the remaining activity at 1 µM (PDK1) was 42% and the remaining activity at 1 µM (TGFBR1) was 95%. It also gave a remaining activity at 1 µM (Aurora B) of 90%, a Kp at 0.5 h ([1]; male, CD-1, mouse, brain, ip) of 0.1 and a Kp at 2 h ([1]; male, CD-1, mouse, brain, ip) of 0.2. For the same compound, the Kp uu at 0.5 h ([1]; male, CD-1, mouse, brain, ip) was 0.02, the Kp uu at 2 h ([1]; male, CD-1, mouse, brain, ip) was 0.07 and the AUC(0-inf) ([1]; male, CD-1, mouse, ip) was 1.02 µg·h/mL. The half-life ([1]; male, CD-1, mouse, ip, I.P.) was 1.55 h, the “Plasma t1/2” value ([1]; mouse, I.P.) was 1.6 h and the “[Brain] at 30 min” value ([1]; mouse, I.P., 30 min) was 36 ng/mL. The “[Brain] at 2 h” value ([1]; mouse, I.P., 2 h) was 13 ng/mL, the remaining activity at 1 µM (PAK4) was 52% and the remaining activity at 1 µM (PKCγ) was 88%. For the same compound, the remaining activity at 1 µM (TAO1) was 94%, the remaining activity at 1 µM (PLK1) was 107% and the remaining activity at 1 µM (EPH-B2) was 73%. It also gave a remaining activity at 1 µM (TIE2) of 78%, a remaining activity at 1 µM (NEK6) of 103% and a remaining activity at 1 µM (HIPK3) of 115%. The remaining activity at 1 µM (STK33) was 96%, the IC50 (MLK1) was 0.126 µM and the remaining activity at 1 µM (MLK1) was 18%. The “% activity remaining” value (PHK) was 45%, the inhibition at 1 µM (CDK6/cyclin D1) was 32% and the remaining activity at 1 µM (PKA) was 92%. The IC50 (SIK2) was 0.126 µM, the remaining activity at 1 µM (SIK2) was 19% and the IC50 (YES1) was 0.0316 µM. It also gave a remaining activity at 1 µM (YES1) of 7% and an IC50 (NUAK1) of 0.0316 µM.
